Assay results as given in US20250340603A1, “A METHOD FOR MODULATING PLANT ADAPTATION TRAITS” (CRAG (Centre de Recerca en Agrigenòmica), priority 2021, published 2025).

Experiments:
WT (Col-0) seedlings = assay: BRZ220 treatment, hypocotyl elongation growth; type: in vivo, Arabidopsis thaliana; conditions: 1 μM BRZ220 in media, WT plants, 22° C. or 28° C., 6 d, LD
Protocol: Pharmacological treatments were performed in plates adding hormones/drugs in the media. Chemicals used include; 1 μM BRZ220 (Gift from T. Nakano, RIKEN, Japan) or 50 μM Bikinin (200980, Sigma-Aldrich) for 6-d in control (long days, 22° C.) or high temperature (long days, 28° C.) conditions. Hypocotyl length were measured using the Image J software (v.1.48v) (https-/imagej.nih.gov/ij/). For hypocotyl elongation analysis, seedlings were grown in horizontally placed 0.5MS− media plates in controlled growth conditions (Aralab 600; long days 16:8h day/night cycle 60% relative humidity and 50-70 μmol m^−2 s^−1 of cool-white fluorescent light) at 22° C. or 28° C. temperature for 5-7d. Plates were photographed and hypocotyl length were measured using the ImageJ software (v.1.48v) (https:/imagej.nih.gov/ij/). For root growth analysis, seedlings were grown in vertically placed 0.5MS− media plates in controlled growth conditions (Aralab 600; long days 16:8h day/night cycle; 22° C.). MyROOT software (Betegón-Putzé et al., 2019) was used to compare root growth of plants. Lateral roots were manually counted under a stereozoom microscope in 9-d-old seedlings.

[1] = molecular target: T1, BRL3 (BRASSINOSTEROID RECEPTOR LIKE 3), full length, fused to a half of YFP (BiFC construct) (Arabidopsis thaliana, UniProt Q9LJF3 24-1164); assay: BiFC (split YFP) in Nicotiana benthamiana leaves, confocal microscopy
T1 construct: also called BRL3 receptor; AT3G13380; not shown: half of YFP (YN or YC, both directions tested) from vectors pGTQL1211-YN / pGTQL1221-YC
T1 sequence: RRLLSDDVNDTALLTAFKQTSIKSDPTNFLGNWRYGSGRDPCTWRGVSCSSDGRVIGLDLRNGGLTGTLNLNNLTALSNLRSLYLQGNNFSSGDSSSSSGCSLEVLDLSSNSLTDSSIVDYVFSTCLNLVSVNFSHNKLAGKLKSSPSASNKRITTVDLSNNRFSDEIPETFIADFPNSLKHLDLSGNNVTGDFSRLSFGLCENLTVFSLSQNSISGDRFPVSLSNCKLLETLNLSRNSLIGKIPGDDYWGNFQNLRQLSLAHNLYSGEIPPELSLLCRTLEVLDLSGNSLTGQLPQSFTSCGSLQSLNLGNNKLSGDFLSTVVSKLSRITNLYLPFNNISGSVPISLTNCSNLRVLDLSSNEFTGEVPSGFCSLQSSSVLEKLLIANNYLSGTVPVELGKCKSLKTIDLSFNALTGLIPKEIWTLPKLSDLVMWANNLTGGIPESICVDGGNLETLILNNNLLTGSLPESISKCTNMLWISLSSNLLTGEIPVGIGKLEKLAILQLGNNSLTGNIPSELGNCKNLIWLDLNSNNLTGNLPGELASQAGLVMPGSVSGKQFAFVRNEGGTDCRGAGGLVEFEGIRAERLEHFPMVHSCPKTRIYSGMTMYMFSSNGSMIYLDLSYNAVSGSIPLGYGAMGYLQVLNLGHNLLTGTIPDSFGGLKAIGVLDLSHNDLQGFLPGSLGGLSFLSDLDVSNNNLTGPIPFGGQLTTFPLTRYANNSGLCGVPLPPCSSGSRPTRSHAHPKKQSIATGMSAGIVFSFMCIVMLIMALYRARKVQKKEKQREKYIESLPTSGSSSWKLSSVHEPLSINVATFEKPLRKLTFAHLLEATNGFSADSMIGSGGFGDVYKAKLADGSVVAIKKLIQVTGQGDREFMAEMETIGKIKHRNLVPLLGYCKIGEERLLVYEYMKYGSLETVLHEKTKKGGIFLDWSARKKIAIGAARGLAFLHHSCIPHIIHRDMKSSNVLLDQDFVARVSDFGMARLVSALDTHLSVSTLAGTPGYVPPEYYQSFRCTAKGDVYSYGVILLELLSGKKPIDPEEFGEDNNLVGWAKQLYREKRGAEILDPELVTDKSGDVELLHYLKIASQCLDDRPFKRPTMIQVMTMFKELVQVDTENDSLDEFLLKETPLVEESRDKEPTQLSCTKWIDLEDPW

For `CC(O)(c1ccccc1)C(Cc1ccc(Cl)cc1)n1cncn1` (centres unmarked) [BRZ220, Brassinazole], the hypocotyl size (WT (Col-0) seedlings) was “reduced hypocotyl size irrespective of the temperature”.

B1: BKI1, BiFC negative control (other, UniProt Q9FMZ0 1-337, looked up)
chain: METNLQQVKNSSQTFSEKQNPKQEASPSPISSTCSSPSHDFSFTISLQPLSSSSKHISPTLRSPSKTTSSYQQTDPFAVDLSPADEIFFHGHLLPLHLLSHLPVSPRTSTGSYNDGFTLPVKDILPDQPTNNNNNTENAITNISTEAKDDNTEDKAEGEIRVKTKPIKSFSLFGLSKWRKGFESNEREQEQQQQKIKKPMSLDLSHAVKKYIRMLFQKRGNGTQFWNRRQTSSYSFSSSLMGPNGNSKTMINGSYNKRDLIRGRRGELFSAPASMRTSPTNSGHLRVSTAGLSSSSGSTSSSSSDSTMEELQAAIQAAIAHCKNSSAVDRDDKVKDS
notes: whole, on cells; not shown: the construct of this control is not described
B1: no binding [1].
